Reference: article PMC12715762, “Discovery of VU6052254: A Novel, Potent M1 Positive Allosteric Modulator” (ACS Chemical Neuroscience, 2025)

How the values were obtained:
hM2-5 = assay: muscarinic selectivity calcium mobilization (human M2-5); type: cell-based
Method: (§1) Procedures for Biological Experiments
(§2) Calcium mobilization assays:
All functional cell-based assays were performed in stable Chinese Hamster Ovary (CHO) cell lines constitutively expressing human M5 or human M1 receptors. For full muscarinic selectivity, CHO cells expressing human M3, human M2 plus Gqi5 or human M4 plus Gqi5 were used. Cells were plated at 15,000 cells per 20 µL per well in black 384-well, TC-treated, clear-bottomed plates (Greiner) in Ham’s F12 medium supplemented with 10% FBS and 20 mM HEPES. Cells were incubated overnight at 37 °C under 5% CO2. […] The compound plate, cell plate, and plates containing EC20 and EC80 acetylcholine concentrations were placed in a Hamamatsu FDSS 6000 or 7000 kinetic imaging plate reader equipped to measure Ex480/Em540 fluorescence. […] After 2 seconds of collecting baseline fluorescence, 20 µL of the compound solutions were added to the cell plate. […] The fluorescence signal was collected for a total of 300 seconds. […] Data were imported and analyzed in Dotmatics Informatics software. by normalizing all data in the individual kinetic traces to the initial fluorescence read. The magnitude of each agonist addition was then determined and normalized to the average maximum response. […] The IC50 determined using the EC80 of acetylcholine is the value reported. […]

[1] = predicted hepatic clearance, hepatic microsomes (human); type: in vitro ADME; conditions: human (h)
Method: After a 5 min preincubation, the reaction was initiated by the addition of NADPH (1 mM). At selected time intervals (0, 3, 7, 15, 25, and 45 min), aliquots were taken and subsequently placed into a 96-well plate containing cold acetonitrile with internal standard (50 ng/mL carbamazepine). Plates were then centrifuged at 3000 rcf (4 °C) for 10 min, and the supernatant was transferred to a separate 96-well plate and diluted 1:1 with water for LC/MS/MS analysis. The in vitro half-life ( 1/2, min, Eq. 1), intrinsic clearance (CLint, mL/min/kg, Eq. 2), and subsequent predicted hepatic clearance (CLhep, mL/min/kg, Eq. 3) was determined employing the […]
where k represents the slope from linear regression analysis of the natural log percent remaining of a test compound as a function of incubation time […]
(2) CLint = in vitroT x mg microsomes x gram liver x kg body wt ascale-up factors: of 20 (human) or 45 (rat) […]
where Qh (hepatic blood flow, mL/min/kg) is 21 (human) or 70 (rat).
LC/MS/MS Bioanalysis of Samples from Plasma Protein Binding and Intrinsic Clearance […]
Samples were analyzed on a Thermo Electron TSQ Quantum Ultra triple quad mass spectrometer (San Jose, CA) via electrospray ionization (ESI) with two Themo Electron Accella pumps (San Jose, CA), and a Leap Technologies CTC PAL autosampler (Carrboro, NC). […]

human M1 = target: T1, human M1 (Homo sapiens, UniProt P11229); assay: M1 agonist calcium mobilization assay (human); type: cell-based; conditions: for hM1 Agonist AChmax (%): human M1, % ACh max, n = 9
T1 sequence (P11229 1-460): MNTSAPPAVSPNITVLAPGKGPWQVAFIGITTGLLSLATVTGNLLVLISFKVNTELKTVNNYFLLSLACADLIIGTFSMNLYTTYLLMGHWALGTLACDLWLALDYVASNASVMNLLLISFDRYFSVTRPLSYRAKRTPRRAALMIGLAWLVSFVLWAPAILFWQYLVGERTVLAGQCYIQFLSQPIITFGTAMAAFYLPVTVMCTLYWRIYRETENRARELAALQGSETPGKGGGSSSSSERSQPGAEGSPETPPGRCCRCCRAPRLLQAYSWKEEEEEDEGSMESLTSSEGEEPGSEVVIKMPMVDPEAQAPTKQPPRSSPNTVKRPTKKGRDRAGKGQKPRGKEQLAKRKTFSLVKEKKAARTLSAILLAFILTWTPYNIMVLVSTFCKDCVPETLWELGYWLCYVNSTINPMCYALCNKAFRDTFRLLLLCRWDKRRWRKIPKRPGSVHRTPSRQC
Method: as §1, §2
All functional cell-based assays were performed in stable Chinese Hamster Ovary (CHO) cell lines constitutively expressing human M5 or human M1 receptors. For full muscarinic selectivity, CHO cells expressing human M3, human M2 plus Gqi5 or human M4 plus Gqi5 were used. Cells were plated at 15,000 cells per 20 µL per well in black 384-well, TC-treated, clear-bottomed plates (Greiner) in Ham’s F12 medium supplemented with 10% FBS and 20 mM HEPES. Cells were incubated overnight at 37 °C under 5% CO2. The following day, the medium was removed and replaced with 1.2 µM Fluo-4 AM (Invitrogen) in assay buffer (Hank’s Balanced Salt Solution supplemented with 20 mM HEPES and 2.5 mM Probenecid, pH 7.4) and the cells were incubated for 50 minutes at 37 °C under 5% CO2. Dye was then removed and replaced with 20 µL of fresh assay buffer. Test compounds at a 10 mM concentration in DMSO were serially diluted in DMSO (either 1:3 or 1:5 dilution) to create a 10-point concentration series. The DMSO solutions were then diluted in assay buffer resulting in compound solutions at 2-times the final assay concentration with the highest assay concentration of 30 µM. The compound plate, cell plate, and plates containing EC20 and EC80 acetylcholine concentrations were placed in a Hamamatsu FDSS 6000 or 7000 kinetic imaging plate reader equipped to measure Ex480/Em540 fluorescence. Data were collected at 1 frame per second. After 2 seconds of collecting baseline fluorescence, 20 µL of the compound solutions were added to the cell plate. This was followed by the addition of an EC20 concentration of acetylcholine at 142 seconds. […] The fluorescence signal was collected for a total of 300 seconds. […] Data were imported and analyzed in Dotmatics Informatics software. by normalizing all data in the individual kinetic traces to the initial fluorescence read. The magnitude of each agonist addition was then determined and normalized to the average maximum response. […] The IC50 determined using the EC80 of acetylcholine is the value reported. […]

| SMILES | EC50 (hM2-5) | Predicted CLhep [1] | hM1 Agonist AChmax (%) (human M1) | EC50 (human M1; human M1, n = 9, read-out: hM1 Agonist EC50) |
| --- | --- | --- | --- | --- |
| Cn1cc2c(-c3cc(F)c(CN4Cc5ncccc5C4=O)c(F)c3)cccc2n1 [compound 1, reference compound] | > 30 µM | 1.3 mL/min/kg | 20% |  |
| Cn1cc2c(-c3cc(F)c(CN4Cc5ncccc5C4=O)c(F)c3)ccc(C(C)(C)O)c2n1 [compound 7] | > 30 µM | 12.8 mL/min/kg | 22% | 3.64 µM |
